Laboratory results published in the supplement of paper PMC10307832.

How the values were obtained:
Assay in all cases: relative viability (nuclei count vs DMSO), 5 days (fraction); higher = more cells survive
[1] = system: NCI-H647
Method in brief: (§1)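 Each reported value is a median over duplicate plates. It expresses relative viability: treated-well nuclei count divided by vehicle-well nuclei count. Lung cancer cell lines in 1536-well plates were dosed by pin tool a day after seeding, alone with one drug or with a fixed anchor-drug dose plus five library-drug doses (not always all listed) in √10 steps, and nuclei were counted after 5 days.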

[2] = system: NCI-H2347
Method in brief: as §1

[3] = system: PC-14
Method in brief: as §1

[4] = system: NCI-H661
Method in brief: as §1

[5] = system: NCI-H1993
Method in brief: as §1

[6] = system: SW 1573
Method in brief: as §1

[7] = system: NCI-H322M
Method in brief: as §1

[8] = system: NCI-H1915
Method in brief: as §1

[9] = system: NCI-H358
Method in brief: as §1

[10] = system: EMC-BAC-2
Method in brief: as §1

[11] = system: HOP-62
Method in brief: as §1

[12] = system: NCI-H1563
Method in brief: as §1

[13] = system: NCI-H2085
Method in brief: as §1

[14] = system: NCI-H727
Method in brief: as §1

[15] = system: NCI-H2023
Method in brief: as §1

[16] = system: LCLC-97TM1
Method in brief: as §1

[17] = system: LXF-289
Method in brief: as §1

[18] = system: NCI-H2126
Method in brief: as §1

[19] = system: H3255
Method in brief: as §1

[20] = system: SK-LU-1
Method in brief: as §1

[21] = system: BEN
Method in brief: as §1

[22] = system: NCI-H2009
Method in brief: as §1

CC(C)Oc1cc(Nc2nc(N[C@@H](C)c3ccc(F)cn3)ncc2Cl)n[nH]1 [AZ23] + Cc1nc(NC(=O)N2CCC[C@H]2C(N)=O)sc1-c1ccnc(C(C)(C)C(F)(F)F)c1 [Alpelisib] (partner 2 µM)
relative viability ([1]; first compound 0.01 µM): 1.63 | relative viability ([1]; first compound 0.03162 µM): 1.37 | relative viability ([1]; first compound 0.3162 µM): 1.17 | relative viability ([2]; first compound 0.01 µM): 1.06 | relative viability ([2]; first compound 0.03162 µM): 1.09 | relative viability ([2]; first compound 0.3162 µM): 1.08 | relative viability ([3]; first compound 0.01 µM): 0.897 | relative viability ([3]; first compound 0.03162 µM): 1.13 | relative viability ([3]; first compound 0.3162 µM): 1.06 | relative viability ([4]; first compound 0.01 µM): 0.629 | relative viability ([4]; first compound 0.03162 µM): 0.686 | relative viability ([4]; first compound 0.3162 µM): 0.908 | relative viability ([5]; first compound 0.01 µM): 0.597 | relative viability ([5]; first compound 0.3162 µM): 0.659 | relative viability ([6]; first compound 0.01 µM): 0.852 | relative viability ([6]; first compound 0.03162 µM): 0.845 | relative viability ([6]; first compound 0.3162 µM): 0.712 | relative viability ([7]; first compound 0.01 µM): 0.774 | relative viability ([7]; first compound 0.03162 µM): 0.774 | relative viability ([7]; first compound 0.3162 µM): 0.823 | relative viability ([8]; first compound 0.01 µM): 1.17 | relative viability ([8]; first compound 0.03162 µM): 1.09 | relative viability ([8]; first compound 0.3162 µM): 1.04 | relative viability ([9]; first compound 0.01 µM): 0.937 | relative viability ([9]; first compound 0.03162 µM): 0.855 | relative viability ([9]; first compound 0.3162 µM): 0.928 | relative viability ([10]; first compound 0.01 µM): 0.897 | relative viability ([10]; first compound 0.03162 µM): 0.791 | relative viability ([10]; first compound 0.3162 µM): 0.754 | relative viability ([11]; first compound 0.01 µM): 1.08 | relative viability ([11]; first compound 0.03162 µM): 0.973 | relative viability ([11]; first compound 0.3162 µM): 0.97 | relative viability ([12]; first compound 0.01 µM): 0.895 | relative viability ([12]; first compound 0.03162 µM): 0.961 | relative viability ([12]; first compound 0.3162 µM): 0.899 | relative viability ([13]; first compound 0.01 µM): 1 | relative viability ([13]; first compound 0.03162 µM): 0.999 | relative viability ([13]; first compound 0.3162 µM): 0.938 | relative viability ([14]; first compound 0.01 µM): 0.634 | relative viability ([14]; first compound 0.03162 µM): 0.628 | relative viability ([14]; first compound 0.3162 µM): 0.601 | relative viability ([15]; first compound 0.03162 µM): 0.675 | relative viability ([15]; first compound 0.3162 µM): 0.623 | relative viability ([16]; first compound 0.01 µM): 0.228 | relative viability ([16]; first compound 0.03162 µM): 0.246 | relative viability ([16]; first compound 0.3162 µM): 0.245 | relative viability ([17]; first compound 0.01 µM): 1.15 | relative viability ([17]; first compound 0.03162 µM): 1.08 | relative viability ([17]; first compound 0.3162 µM): 1.05 | relative viability ([18]; first compound 0.01 µM): 0.768 | relative viability ([18]; first compound 0.03162 µM): 0.698 | relative viability ([18]; first compound 0.3162 µM): 0.769 | relative viability ([19]; first compound 0.01 µM): 0.637 | relative viability ([19]; first compound 0.03162 µM): 0.868 | relative viability ([19]; first compound 0.3162 µM): 0.863 | relative viability ([20]; first compound 0.01 µM): 1.28 | relative viability ([20]; first compound 0.03162 µM): 1.09 | relative viability ([20]; first compound 0.3162 µM): 0.973 | relative viability ([21]; first compound 0.01 µM): 1.02 | relative viability ([21]; first compound 0.03162 µM): 1.18 | relative viability ([21]; first compound 0.3162 µM): 1.09 | relative viability ([22]; first compound 0.01 µM): 1.13 | relative viability ([22]; first compound 0.03162 µM): 1.23 | relative viability ([22]; first compound 0.3162 µM): 1.19
